Experimental data: the SangsterLogP compilation

Experiment: method code SF-HPLC, from DOI: 10.1016/s0928-0987(01)00163-4, PMID: 11500258
Conditions: pH 7.4

SMILES	logD
COc1ccc2cc(C(C)C(=O)OCCOCCOCCOCCOCCOCCO)ccc2c1 (stereo not drawn)	2.9
O=C(Cc1ccccc1Nc1c(Cl)cccc1Cl)OCCOCCO	4.1
O=C(Cc1ccccc1Nc1c(Cl)cccc1Cl)OCCOCCOCCO	3.9
COc1ccc2cc(C(C)C(=O)OCCOCCOCCOCCO)ccc2c1 (stereo not drawn)	3.5
O=C(Cc1ccccc1Nc1c(Cl)cccc1Cl)OCCOCCOCCOCCOCCOCCO	2.6
O=C(Cc1ccccc1Nc1c(Cl)cccc1Cl)OCCOCCOCCOCCO	3.5
COc1ccc2cc(C(C)C(=O)OCCOCCOCCO)ccc2c1 (stereo not drawn)	3.7
COc1ccc2cc(C(C)C(=O)OCCOCCOCCOCCOCCO)ccc2c1 (stereo not drawn)	3.2

Further lines, results first:

logD	SMILES
3.6	CC(C(=O)OCCOCCO)c1cccc(C(=O)c2ccccc2)c1 (stereo not drawn)
3.5	CC(C(=O)OCCOCCOCCOCCOCCOCCO)c1cccc(C(=O)c2ccccc2)c1 (stereo not drawn)
3.9	CC(C(=O)OCCOCCOCCOCCOCCO)c1cccc(C(=O)c2ccccc2)c1 (stereo not drawn)
3.6	CC(C(=O)OCCOCCOCCOCCO)c1cccc(C(=O)c2ccccc2)c1 (stereo not drawn)
3.4	CC(C(=O)OCCOCCOCCO)c1cccc(C(=O)c2ccccc2)c1 (stereo not drawn)
